The source of these data is ChEMBL document CHEMBL1136500, “1,3-dihydrobenzo[c]furan nucleoside analogues: additional studies of the thymine derivative” (Bioorg Med Chem Lett, 2003).

Data set [1] can be described thus: Half life at pH 2.0. It is filed as ADME. To be noted: buffer.
Data set [2] can be described thus: Half life at pH 7.3. The class given is ADME. To be noted: buffer.
The nature of data set [3]: Half life at pH 1.2. To be noted: buffer. The class given is ADME.
The target of data set [4] is Human immunodeficiency virus type 1 reverse transcriptase (Human immunodeficiency virus 1) (UniProt Q72547). The experiment in a line: Inhibitory activity against human immunodeficiency virus-1 reverse transcriptase (HIV-1 RT).
A short description of data set [5]: Partition coefficient (logP). It is filed as physicochemical. The conditions noted are these: octanol/water.
In data set [6] the target is Human immunodeficiency virus type 1 reverse transcriptase (Human immunodeficiency virus 1) (UniProt Q72547). The experiment in a line: Inhibitory activity against human immunodeficiency virus-1 reverse transcriptase (HIV-1 RT) at a concentration up to 100 uM; IA-Inactive.
Data set [7] shares this target. Put plainly: Inhibitory activity against human immunodeficiency virus-1 reverse transcriptase (HIV-1 RT) at a concentration up to 10 uM; IA=Inactive.

In general, half-life refers to the time in which the quantity being followed falls by half. A word on the IC90: it is the concentration needed for an effect of 90%. Higher therefore signals a need for much substance. One may read the logP as the decadic logarithm of the partition coefficient of the neutral form, usually between octanol and water. A higher logP goes with higher lipophilicity.

SMILES strings stand for the structures. Calls of active or inactive are those of the source. The calls are words filed in the database; no cut-off is given here.

`Cc1cn([C@H]2C=C[C@@H](CO)O2)c(=O)[nH]c1=O` [STAVUDINE]: the half-life in data set [1] is 5 days; in data set [2] it was 6 days; in data set [3], 3 days. Also, in data set [4], the concentration for an effect of 90% (IC90) worked out at 100 nM. Besides, the logP in data set [5] is -0.77.

For the compound `Cc1cn([C@@H]2O[C@H](COP(=O)(O)OP(=O)(O)OP(=O)(O)O)c3ccccc32)c(=O)[nH]c1=O`, the result in data set [6] was inactive.

As to `Cc1cn([C@@H]2O[C@H](CO)c3ccccc32)c(=O)[nH]c1=O`, the half-life is 31 days in data set [1], 34 days in data set [2] and 18 days in data set [3]. For the same compound, the outcome in data set [7] was inactive. Further, the lipophilicity (logP) in data set [5] worked out at 0.55.
